“And” between values parts separate entries of the source, which are not always exact repeats. Equal entries are not always repeated.
Experiments:
[1] = tested on: ovariectomized (OVX) rats; assay: Telemetry rat model of ovariectomy-induced thermoregulatory dysfunction (tail skin temperature); assay type: in vivo; details: 30 mg/kg, sc
Description: This model has been modified from a previously reported protocol describing estrogen regulation of diurnal tail skin temperature (TST) patterns (Berendsen, et al., European Journal of Pharmacology, 2001, 419(1): 47-54). […] A temperature and physical activity transmitter (PhysioTel TA10TA-F40, Data Sciences International) was implanted subcutaneously in the dorsal scapular region and the tip of the temperature probe was tunneled subcutaneously 2.5 cm beyond the base of the tail. After a 7-day recovery period, TST readings were continuously recorded for the remainder of the study. Tail skin temperature readings were collected from each animal every 5 minutes with values obtained over a 10 second sampling period. The day before test day, an average baseline TST value was calculated for each animal by averaging temperature readings recorded during the 12 hour active (dark) phase. […]
Statistical analysis: Evaluation of a compound's ability to restore normal lowering of TST in the telemetry model was analyzed using hourly TST values calculated for each animal by averaging the 12 temperature readings obtained every 5 minutes over that recording time. […]
The effect of test compound is measured by evaluating the following parameters in this model: onset of action, duration of effect on TST, maximal change in TST and mean change in TST over the duration of the compound effect.

[2] = biological target: T1, human dopamine transporter (hDAT) (Homo sapiens, UniProt Q01959); assay: Dopamine transporter (hDAT) membrane binding assay
T1 construct: purchased Perkin Elmer RBHDATM
Description: (§1) MDCK-Net6 cells, stably transfected with human hNET [15] were cultured in growth medium containing high glucose DMEM (Gibco, Cat. No. 11995), 10% FBS (dialyzed, heat-inactivated, US Bio-Technologies, Lot FBD1129HI) and 500 μg/ml G418 (Gibco, Cat. No. 10131). Cells were plated at 300,000/T75 flask and cells were split twice weekly. The JAR cell line (human placental choriocarcinoma) was purchased from ATCC (Cat. No. HTB-144). The cells were cultured in growth medium containing RPMI 1640 (Gibco, Cat. No. 72400), 10% FBS (Irvine, Cat. No. 3000), 1% sodium pyruvate (Gibco, Cat. No. 1136) and 0.25% glucose. Cells were plated at 250,000 cells/T75 flask and split twice weekly. For cell based assays, cells were plated in Wallac 96-well sterile plates (Perkin Elmer, Cat. No. 3983498). For the human dopamine transporter (hDAT) binding assay, membranes from cells expressing recombinant hDAT are purchased from Perkin Elmer (Cat. No. RBHDATM, Lot#2227) and maintained at −80° C. until assay day.
For each experiment, a data stream of cpm values collected from the Wallac Microbeta counter was downloaded to a Microsoft Excel statistical application program. Calculations of IC50/EC50 values were made using the transformed-both-sides logistic dose response program written by Wyeth Biometrics Department.

[3] = tested on: Spinal Nerve Ligation (SNL) Model of Neuropathic Pain; assay: Spinal Nerve Ligation (SNL) model of neuropathic pain, tactile hypersensitivity; assay type: in vivo, rat; details: 30 mg/kg IP, 30-300 minutes after administration, FIG. 7
Description: Subjects. Male Sprague-Dawley rats (Indianapolis, Ind.) weighing 150 to 200 g at time of arrival, were individually housed in wire cages in a climate-controlled room. A 12-hour light/dark cycle (lights on at 0630) was in effect, and food and water were available ad libitum.
Surgery—Spinal Nerve Ligation. Rats were anesthetized with 3.5% halothane in O2 at 1 L/min and maintained with 1.5% halothane in O2 during surgery. Ligation of the L5 and L6 nerves was produced by an incision through the left paraspinal muscles. The left L5 and L6 spinal nerves were isolated adjacent to the vertebral column and ligated tightly with 6-0 silk suture just distal to the dorsal root ganglion. The wound was closed in layers using 4-0 silk suture and wound clips. Testing began 7 days after surgery.
Assessment of tactile hypersensitivity. […] Baseline tactile sensitivity was assessed using a series of calibrated von Frey monofilaments (Stoelting; Wood Dale, Ill.) 0 to 3 days before surgery. […] The ability of a single dose of test compound to reverse established hypersensitivity was assessed using a time course procedure. […]
Results are presented as the 50% threshold values (50% threshold in g force) estimated by the Dixon non-parametric test. […] Significant main effects were analyzed further by subsequent least significant difference analysis. […]

[4] = biological target: T2, human serotonin transporter (hSERT) (Homo sapiens, UniProt P31645); assay: Serotonin (5-HT) uptake assay in JAR cells; assay type: cell-based; details: [3H]5-HT uptake, read-out: hSERT function uptake (EC50 in nm)
T2 construct: The methods for 5-HT functional reuptake using the JAR cell line; host or cells: JAR (human placental choriocarcinoma), staurosporine-stimulated
Description: as §1
The methods for 5-HT functional reuptake using the JAR cell line were modified using a previous literature report. On day 1, cells were plated at 15,000 cells/well in 96-well plates containing growth medium (RPMI 1640 with 10% FBS) and maintained in a cell incubator (37° C., 5% CO2). […] The plates were counted in a Wallac Microbeta counter (PerkinElmer) to collect the raw cpm data. […]

[5] = biological target: human norepinephrine transporter (hNET) (Homo sapiens, UniProt P23975); assay: cell-based
Description: as §1
On day 1, cells were plated at 3,000 cells/well in growth medium and maintained in a cell incubator (37° C., 5% CO2). […] The plates were counted in a Wallac Microbeta counter (PerkinElmer) to collect the raw cpm data. […]

T1 sequence (Q01959 whole entry): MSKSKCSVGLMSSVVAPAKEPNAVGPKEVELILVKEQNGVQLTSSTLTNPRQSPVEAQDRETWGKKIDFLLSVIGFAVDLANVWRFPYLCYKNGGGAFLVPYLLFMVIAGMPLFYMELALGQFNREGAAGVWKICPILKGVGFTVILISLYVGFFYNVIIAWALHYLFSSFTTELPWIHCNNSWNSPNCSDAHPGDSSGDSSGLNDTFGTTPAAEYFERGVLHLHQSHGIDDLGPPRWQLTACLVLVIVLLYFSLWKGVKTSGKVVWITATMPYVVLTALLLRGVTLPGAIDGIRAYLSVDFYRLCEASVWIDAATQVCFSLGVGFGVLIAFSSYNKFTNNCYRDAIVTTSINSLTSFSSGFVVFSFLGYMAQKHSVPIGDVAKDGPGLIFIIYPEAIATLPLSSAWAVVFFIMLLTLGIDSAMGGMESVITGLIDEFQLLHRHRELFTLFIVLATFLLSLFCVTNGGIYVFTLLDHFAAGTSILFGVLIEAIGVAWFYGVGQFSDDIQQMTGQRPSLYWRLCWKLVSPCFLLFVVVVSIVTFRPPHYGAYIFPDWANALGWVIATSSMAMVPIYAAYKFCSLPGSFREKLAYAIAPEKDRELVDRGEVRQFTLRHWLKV
T2 sequence (P31645 whole entry): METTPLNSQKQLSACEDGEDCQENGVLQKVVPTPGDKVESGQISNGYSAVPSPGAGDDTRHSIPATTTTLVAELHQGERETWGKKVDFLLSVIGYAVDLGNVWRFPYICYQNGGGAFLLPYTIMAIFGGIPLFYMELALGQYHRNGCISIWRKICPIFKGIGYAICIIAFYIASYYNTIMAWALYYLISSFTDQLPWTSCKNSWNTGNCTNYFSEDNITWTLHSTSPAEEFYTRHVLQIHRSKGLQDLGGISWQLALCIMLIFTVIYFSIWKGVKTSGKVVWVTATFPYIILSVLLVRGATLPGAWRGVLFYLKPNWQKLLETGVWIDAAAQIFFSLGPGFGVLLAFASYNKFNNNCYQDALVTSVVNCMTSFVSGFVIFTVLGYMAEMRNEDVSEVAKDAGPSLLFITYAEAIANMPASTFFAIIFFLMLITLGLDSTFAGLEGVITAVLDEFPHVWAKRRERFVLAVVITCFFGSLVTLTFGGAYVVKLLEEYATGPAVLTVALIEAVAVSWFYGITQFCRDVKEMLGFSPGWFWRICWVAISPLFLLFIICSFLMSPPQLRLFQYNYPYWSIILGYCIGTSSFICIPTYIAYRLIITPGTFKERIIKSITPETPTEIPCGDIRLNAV
human norepinephrine transporter (hNET), sequence (P23975 whole entry): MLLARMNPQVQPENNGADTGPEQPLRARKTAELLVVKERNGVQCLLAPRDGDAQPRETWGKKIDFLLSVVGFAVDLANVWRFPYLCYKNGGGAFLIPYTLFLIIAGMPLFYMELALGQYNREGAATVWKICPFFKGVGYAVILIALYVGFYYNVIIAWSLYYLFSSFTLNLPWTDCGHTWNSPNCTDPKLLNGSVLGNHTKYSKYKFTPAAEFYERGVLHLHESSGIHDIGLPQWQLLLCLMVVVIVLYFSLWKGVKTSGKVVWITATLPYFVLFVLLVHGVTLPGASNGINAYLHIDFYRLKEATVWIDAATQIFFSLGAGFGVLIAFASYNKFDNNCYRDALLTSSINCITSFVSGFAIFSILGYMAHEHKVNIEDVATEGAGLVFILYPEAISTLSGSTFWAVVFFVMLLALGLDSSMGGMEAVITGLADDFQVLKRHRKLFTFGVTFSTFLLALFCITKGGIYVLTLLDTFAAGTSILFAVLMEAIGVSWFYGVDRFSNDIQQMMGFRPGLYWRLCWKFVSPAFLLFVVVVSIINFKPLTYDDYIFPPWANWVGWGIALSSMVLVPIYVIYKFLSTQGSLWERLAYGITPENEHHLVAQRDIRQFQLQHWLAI

| Compound | Restoration of normal TST in OVX-induced thermoregulatory dysfunction telemetry model [1] | hDAT binding (% I at 1 μM) ([2]; 1 μM) | hDAT binding (% I at 10 μM) [2] | Reversal of tactile allodynia in the SNL neuropathic pain model [3] | EC50 [4] | EC50 [5] |
| --- | --- | --- | --- | --- | --- | --- |
| Cc1ccc(C23CNCC2C3)cc1 (racemic) [Racemic 1-(4-methylphenyl)-3-azabicyclo[3.1.0]hexane, 1-(4-methylphenyl)-3-azabicyclo[3.1.0]hexane] | restores normal TST | 26.5 % I | 45 % I and 52.1 % I |  |  |  |
| Clc1ccc(C23CNCC2C3)cc1Cl (racemic) [Racemic 1-(3,4-dichlorophenyl)-3-azabicyclo[3.1.0]hexane, 1-(3,4-dichlorophenyl)-3-azabicyclo[3.1.0]hexane] |  |  |  | significantly reverses tactile allodynia |  |  |
| Cc1ccc([C@@]23CNC[C@@H]2C3)cc1 (single isomer, unassigned) [(+)-1-(4-methylphenyl)-3-azabicyclo[3.1.0]hexane] | restores normal TST |  | 51 % I |  | 7.35 µM | 0.148 µM |
